# Experimental data: patent EP3800188A1, “SUBSTITUTED PYRAZOLOPYRIMIDINES AS IRAK4 INHIBITORS” (Bayer AG, priority 2019, dated 2021)
# Legend:
# [1] = Metabolic stability in human liver microsomes; conditions: 1 µM compound; for CLblood, human microsomes: hepatic in vivo blood clearance calculated with well stirred liver model, '(stable)' given beside < 0.01; for Fmax, human microsomes: maximal oral bioavailability calculated with well stirred liver model, 0.5 mg/mL protein, '(stable)' given beside 100
# human IRAK4 = molecular target: T1, human IRAK4 (Homo sapiens, UniProt Q9NWZ3); test: Human IRAK4 kinase activity inhibition assay (IRAK4 TR-FRET assay); assay type: biochemical; conditions: 1 mM ATP, GST-human IRAK4, average or median values
# T1 construct: GST (N); made in house; host or cells: baculovirus-infected Hi5 (BTI-TN-5B1-4) insect cells
# T1 sequence (Q9NWZ3 1-460): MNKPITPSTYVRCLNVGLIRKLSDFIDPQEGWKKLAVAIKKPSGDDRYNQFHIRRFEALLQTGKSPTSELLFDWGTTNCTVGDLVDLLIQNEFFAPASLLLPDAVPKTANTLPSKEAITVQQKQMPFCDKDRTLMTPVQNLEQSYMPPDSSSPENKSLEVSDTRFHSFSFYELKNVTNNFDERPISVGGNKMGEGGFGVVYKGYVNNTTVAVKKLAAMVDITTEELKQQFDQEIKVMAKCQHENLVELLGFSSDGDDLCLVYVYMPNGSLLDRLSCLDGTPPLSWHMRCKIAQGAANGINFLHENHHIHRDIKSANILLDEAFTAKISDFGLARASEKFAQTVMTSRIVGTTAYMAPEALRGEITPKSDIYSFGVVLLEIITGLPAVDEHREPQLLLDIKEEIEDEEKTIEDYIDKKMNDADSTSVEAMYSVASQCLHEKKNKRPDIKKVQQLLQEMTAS
# Procedure, shortened: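 GST-IRAK4 from insect cells (about 0.2 nM, linear range) was preincubated 15 min with compound (11 concentrations, 20 µM–0.073 nM) in HEPES pH 7.5 with MgCl2 and DTT before kinase reaction on a biotinylated peptide. Phosphopeptide was detected by TR-FRET (Eu anti-mouse-IgG/anti-phosphoserine/streptavidin-XL665, 1 h at 22°C) as the 665/620 nm ratio, normalized to no-compound and no-enzyme controls.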
SMILES,"CLblood, human microsomes [1]","Fmax, human microsomes [1]",IC50 (human IRAK4) [nM]
"CS(=O)(=O)[C@H]1C[C@H](Nc2nc(N3C[C@@H](O)[C@H](F)C3)c3cnn(-c4cccc(C(F)(F)F)c4)c3n2)C1 [Example I-86, (3R,4R)-4-fluoro-1-(6-{[(1r,3R)-3-(methylsulfonyl)cyclobutyl]amino}-1-[3-(trifluoromethyl)phenyl]-1H-pyrazolo[3,4-d]pyrimidin-4-yl)pyrrolidin-3-ol]",0.25 L/h/kg,81%,3.66
"CC(C)(O)CC1CN(c2nc(NC3CCS(=O)(=O)CC3)nc3c2cnn3-c2cccc(C(F)F)c2)C1 [II-7, 1-(1-{1-[3-(difluoromethyl)phenyl]-6-[(1,1-dioxidotetrahydro-2H-thiopyran-4-yl)amino]-1H-pyrazolo[3,4-d]pyrimidin-4-yl}azetidin-3-yl)-2-methylpropan-2-ol]",< 0.01 (stable) L/h/kg,100 (stable) %,5.37
"CC(C)(O)CC1CN(c2nc(N[C@H]3C[C@H](S(C)(=O)=O)C3)nc3c2cnn3-c2cccc(C(F)(F)F)c2)C1 [Example I-67, 2-methyl-1-[1-(6-{[trans-3-(methylsulfonyl)cyclobutyl]amino}-1-[3-(trifluoromethyl)-phenyl]-1H-pyrazolo[3,4-d]pyrimidin-4-yl)azetidin-3-yl]propan-2-ol]",0.24 L/h/kg,82%,5.33
"CC(C)(O)C1CN(c2nc(N[C@H]3C[C@H](S(C)(=O)=O)C3)nc3c2cnn3-c2cccc(C(F)(F)F)c2)C1 [Example I-83, 2-[1-(6-{[trans-3-(methylsulfonyl)cyclobutyl]amino}-1-[3-(trifluoromethyl)phenyl]-1H-pyrazolo[3,4-d]pyrimidin-4-yl)azetidin-3-yl]propan-2-ol]",0.23 L/h/kg,83%,5.53
"O=C1CCCN1C1CN(c2nc(N[C@H]3C[C@H](O)C3)nc3c2cnn3-c2cccc(C(F)(F)F)c2)C1 [Example I-113, 1-(1-{6-[(trans-3-hydroxycyclobutyl)amino]-1-[3-(trifluoromethyl)phenyl]-1H-pyrazolo-[3,4-d]pyrimidin-4-yl}azetidin-3-yl)pyrrolidin-2-one]",0.03 L/h/kg,98%,3.6
"CC(C)(O)CC1CN(c2nc(NC3CN(S(C)(=O)=O)C3)nc3c2cnn3-c2cccc(C(F)F)c2)C1 [II-14, 1-[1-(1-[3-(difluoromethyl)phenyl]-6-{[1-(methylsulfonyl)azetidin-3-yl]amino}-1H-pyrazolo[3,4-d]pyrimidin-4-yl)azetidin-3-yl]-2-methylpropan-2-ol]",< 0.01 (stable) L/h/kg,100 (stable) %,7.01
"CS(=O)(=O)[C@H]1C[C@H](Nc2nc(N3C[C@H](O)[C@@H](F)C3)c3cnn(-c4cccc(C(F)F)c4)c3n2)C1 [II-16-2, (3S,4S)-1-(1-[3-(difluoromethyl)phenyl]-6-{[trans-3-(methanesulfonyl)cyclobutyl]amino}-1H-pyrazolo[3,4-d]pyrimidin-4-yl)-4-fluoropyrrolidin-3-ol]",< 0.01 (stable) L/h/kg,100 (stable) %,2.82
"O[C@@H]1CN(c2nc(N[C@H]3C[C@H](O)C3)nc3c2cnn3-c2cccc(C(F)(F)F)c2)C[C@H]1O [Example I-101, (3R,4R)-1-(6-{[(1r,3R)-3-hydroxycyclobutyl]amino}-1-[3-(trifluoromethyl)phenyl]-1H-pyrazolo[3,4-d]pyrimidin-4-yl)pyrrolidine-3,4-diol]",0.35 L/h/kg,73%,2.81
"CC(C)(N)C1CCN(c2nc(N[C@@H]3CNC(=O)C3)nc3c2cnn3-c2cccc(C(F)(F)F)c2)CC1 [Example I-47, (4S)-4-({4-[4-(2-aminopropan-2-yl)piperidin-1-yl]-1-[3-(trifluoromethyl)phenyl]-1H-pyrazolo[3,4-d]pyrimidin-6-yl}amino)pyrrolidin-2-one]",0.17 L/h/kg,87%,0.861
"CC1(N2CCOCC2)CN(c2nc(N[C@H]3C[C@H](S(C)(=O)=O)C3)nc3c2cnn3-c2cccc(C(F)F)c2)C1 [II-21, 1-[3-(difluoromethyl)phenyl]-4-[3-methyl-3-(morpholin-4-yl)azetidin-1-yl]-N-[trans-3-(methylsulfonyl)cyclobutyl]-1H-pyrazolo[3,4-d]pyrimidin-6-amine]",0.07 L/h/kg,95%,1.8
"O=C1CN(C2CN(c3nc(N[C@H]4C[C@H](O)C4)nc4c3cnn4-c3cccc(C(F)F)c3)C2)CCN1 [II-27, 4-(1-{1-[3-(difluoromethyl)phenyl]-6-[(trans-3-hydroxycyclobutyl)amino]-1H-pyrazolo[3,4-d]pyrimidin-4-yl}azetidin-3-yl)piperazin-2-one]",< 0.01 (stable) L/h/kg,100 (stable) %,4.75
"CC(C)(O)C1CCN(c2nc(N[C@H]3CC[C@@H](O)C3)nc3c2cnn3-c2cccc(C(F)(F)F)c2)CC1 [Example I-29, (1R,3S)-3-({4-[4-(2-hydroxypropan-2-yl)piperidin-1-yl]-1-[3-(trifluoromethyl)phenyl]-1H-pyrazolo[3,4-d]pyrimidin-6-yl}amino)cyclopentanol]",0.43 L/h/kg,68%,10.8

# Other lines, results leading:
"CLblood, human microsomes [1]","Fmax, human microsomes [1]",IC50 (human IRAK4) [nM],SMILES
< 0.01 (stable) L/h/kg,100 (stable) %,6.15,"CC1(O)CCN(C2CN(c3nc(N[C@@H]4CNC(=O)C4)nc4c3cnn4-c3cccc(C(F)(F)F)c3)C2)CC1 [Example I-30, (4S)-4-({4-[3-(4-hydroxy-4-methylpiperidin-1-yl)azetidin-1-yl]-1-[3-(trifluoromethyl)phenyl]-1H-pyrazolo[3,4-d]pyrimidin-6-yl)amino)pyrrolidin-2-one]"
< 0.01 (stable) L/h/kg,100 (stable) %,2.01,"CS(=O)(=O)[C@H]1C[C@H](Nc2nc(N3CC(N4CCOCC4)C3)c3cnn(-c4cccc(C(F)F)c4)c3n2)C1 [II-8, 1-[3-(difluoromethyl)phenyl]-N-[trans-3-(methylsulfonyl)cyclobutyl]-4-[3-(morpholin-4-yl)azetidin-1-yl]-1H-pyrazolo[3,4-d]pyrimidin-6-amine]"
< 0.01 (stable) L/h/kg,100 (stable) %,3.46,"O=C1C[C@H](Nc2nc(N3CC(N4CCOCC4)C3)c3cnn(-c4cccc(C(F)F)c4)c3n2)CN1 [II-1, (4S)-4-({1-[3-(difluoromethyl)phenyl]-4-[3-(morpholin-4-yl)azetidin-1-yl]-1H-pyrazolo[3,4-d]pyrimidin-6-yl}amino)pyrrolidin-2-one]"
0.34 L/h/kg,74%,3.63,"CC1(N2CCOCC2)CN(c2nc(N[C@H]3C[C@H](S(C)(=O)=O)C3)nc3c2cnn3-c2cccc(C(F)(F)F)c2)C1 [Example I-59, 4-[3-methyl-3-(morpholin-4-yl)azetidin-1-yl]-N-[trans-3-(methylsulfonyl)cyclobutyl]-1-[3-(trifluoromethyl)phenyl]-1H-pyrazolo[3,4-d]pyrimidin-6-amine]"
0.13 L/h/kg,90%,11.1,"CC1(O)CCN(C2CN(c3nc(N[C@H]4C[C@@](C)(O)C4)nc4c3cnn4-c3cccc(C(F)(F)F)c3)C2)CC1 [Example I-111, 1-(1-{6-[(cis-3-hydroxy-3-methylcyclobutyl)amino]-1-[3-(trifluoromethyl)phenyl]-1H-pyrazolo[3,4-d]pyrimidin-4-yl}azetidin-3-yl)-4-methylpiperidin-4-ol]"
0.17 L/h/kg,87%,7.01,"O=C1C[C@H](Nc2nc(N3CCC(N4CCOCC4)CC3)c3cnn(-c4cccc(C(F)(F)F)c4)c3n2)CN1 [Example I-27, (4S)-4-({4-[4-(morpholin-4-yl)piperidin-1-yl]-1-[3-(trifluoromethyl)phenyl]-1H-pyrazolo[3,4-d]pyrimidin-6-yl}amino)pyrrolidin-2-one]"
0.36 L/h/kg,72%,4.8,"C[C@]1(O)C[C@H](Nc2nc(N3CC(N4CCOCC4)C3)c3cnn(-c4cccc(C(F)(F)F)c4)c3n2)C1 [Example I-77, trans-1-methyl-3-({4-[3-(morpholin-4-yl)azetidin-1-yl]-1-[3-(trifluoromethyl)phenyl]-1H-pyrazolo[3,4-d]pyrimidin-6-yl}amino)cyclobutanol]"
